Laboratory results taken from patent publication US9889135B2, “Companion diagnostic for CDK4 inhibitors” (Memorial Sloan-Kettering Cancer Center, priority 2013, dated 2018).

Experiments:
[1] = test system: LS8817, LS141 and LS0082 cells; test: SA-β-gal and SAHF (HP1γ) senescence staining, responder lines; assay type: cell-based, human
Excerpt: (§1) Mean percentage standard deviation). […] (A) Senescence-associated β-galactosidase and (B) HP1γ staining for senescence associated heterochromatic foci (SAHF) formation was quantitated for three or more independent experiments for each cell line. […] Representative phase contrast micrographs of cells stained for SA-β-gal or immunofluorescence staining for HP1γ in two of the cell lines before (ctrl) and after (PD) drug treatment are shown in the insets of FIGS. 2A and 2B, respectively. (C) BrdU incorporation. […] Error bars represent the standard deviation of the mean calculated from three independent trials. […] Cell number was quantitated by DAPI staining and β-galactosidase staining quantitated as a proportion of total cells. Senescence associated heterochromatic foci were quantitated after cells were fixed with 4% paraformaldehyde, permeabilized with 0.1% Triton, blocked with 2% FBS, and stained with antibodies against HP1γ (1:5000 dilution, 2MOD-1G6 Millipore). Senescent cells were identified by immunofluorescence after treatment of slides with anti-mouse secondary antibodies and quantitation of focal SAHF as a percent of total cells (Leica Upright Confocal SP5 confocal microscope). […] Cell area was measured by with Metamorph software to calculate relative area per cell.

[2] = test system: LS8107, LS7785-10, LS7785-1 and LS8313 cells; test: SA-β-gal and SAHF (HP1γ) senescence staining, non-responder lines; assay type: cell-based, human; conditions: LS7785-1, LS7785-10, LS8107 and LS8313; even at ten-fold increased concentration
Excerpt: as §1

[3] = test system: LS8107 and LS7785-1 cells; test: BrdU incorporation after release into drug-free medium; assay type: cell-based, human; conditions: after seven days of drug treatment
Excerpt: (§2) Mean percentage standard deviation). (*p<0.05). (A) Senescence-associated β-galactosidase and (B) HP1γ staining for senescence associated heterochromatic foci (SAHF) formation was quantitated for three or more independent experiments for each cell line. (*p<0.05). Representative phase contrast micrographs of cells stained for SA-β-gal or immunofluorescence staining for HP1γ in two of the cell lines before (ctrl) and after (PD) drug treatment are shown in the insets of FIGS. 2A and 2B, respectively. (C) BrdU incorporation. Cell lines were treated with PD0332991 for seven days, and released into drug-free medium containing BrdU for the number of days indicated. Error bars represent the standard deviation of the mean calculated from three independent trials.

LS8817 and LS0082 cells = test: as above; assay type: cell-based, human; conditions: after seven days of drug treatment
Excerpt: as §2

[4] = test system: catalase in WD/DDLS cell lines; test: catalase expression by immunoblot; assay type: cell-based, human; conditions: two senescing and two non-senescing cell lines
Excerpt: (§3) FIG. 22. Additional immunoblot analysis in responder and non-responder cells. […] Actin is a loading control. This experiment was repeated at least three times for each cell line.

LS6736 cells = test: SA-β-gal and HP1γ staining in LS6736; assay type: cell-based, human; conditions: LS6736 (MDM2 amplified, CDK4 not); seven days
Procedure: Cells were plated at a concentration of 25,000 per well in a 4-well chamber slides (Lab-Tek) and treated for seven days with drug or shRNA as described above and stained for senescence-associated β-galactosidase (Cell Signaling kit #9860). Cell number was quantitated by DAPI staining and β-galactosidase staining quantitated as a proportion of total cells. Senescence associated heterochromatic foci were quantitated after cells were fixed with 4% paraformaldehyde, permeabilized with 0.1% Triton, blocked with 2% FBS, and stained with antibodies against HP1γ (1:5000 dilution, 2MOD-1G6 Millipore). Senescent cells were identified by immunofluorescence after treatment of slides with anti-mouse secondary antibodies and quantitation of focal SAHF as a percent of total cells (Leica Upright Confocal SP5 confocal microscope). Actin was marked using phalloidin staining (1:500, Invitrogen) and cells were counterstained with DAPI. Cell area was measured by with Metamorph software to calculate relative area per cell.

[5] = test system: MDM2 in LS0082, LS141 and LS8817 cells; test: MDM2 turnover (cycloheximide chase), responder cells; assay type: cell-based, human; conditions: 1 μM for 48 hrs, then cycloheximide
Procedure: (§4) The level of MDM2 was measured by immunoblot (center). Tubulin was a loading control. […] This experiment was repeated at least three times on different biologic replicates. […] Tubulin is a loading control. Data compiled from at least three independent experiments is plotted (mean and standard deviation) and a representative immunoblot is shown. […] The graphs are compiled from the data obtained in three independent biologic replicates and representative autoradiographs are shown.

[6] = test system: MDM2 in LS7785-1 and LS7785-10 cells; test: MDM2 turnover (cycloheximide chase), non-responder cells; assay type: cell-based, human; conditions: non-responder cells LS7785-1 and LS7785-10; 1 μM for 48 hrs, then cycloheximide
Procedure: as §4

[7] = test system: HAUSP in WD/DDLS cell lines; test: HAUSP levels by immunoblot; assay type: cell-based, human; conditions: 2 days of treatment
Procedure: FIG. 25A-D. Turnover of MDM2 is regulated post-translationally. […] Extracts were prepared and MDM2 was immunoprecipitated and the presence of HAUSP and MDM2 in the precipitates were determined by immunoblot. IgG was used as a non-specific antibody control for the immunoprecipitation. […] Tubulin is a loading control. HAUSP levels were reduced with shRNA in the indicated cells lines and the effect on protein expression (C) and the accumulation of senescence-associated (3-galactosidase positive cells measured (D). The mean and standard deviation was compiled from at least two independent experiments with each cell line and a representative immunoblot is shown.

[8] = test system: Glioma (U87MG, U251, SNB19, DBTRG-05MG) and breast cancer (MDA453, T47D, ZR-75-1, and MCF7) cells; test: SA-β-gal senescence in glioma and breast cancer cell lines; assay type: cell-based; conditions: eight cell lines, some p53 and/or INK4 mutant
Excerpt: FIG. 19A-C. Senescence associated with the downregulation of MDM2 is p53 and INK4 independent. […] This experiment was repeated three times with similar results in both LS8817 and LS141. […] The p53 mutational status of these cell lines (WT, wild type; R273H and L194F, missense mutations; if-DEL, in-frame deletion of 30 nucleotides at amino acid 368) were obtained from the p53 mutation database and the RIKEN bioresource databank and is consistent with the detection of p21 by immunoblot. (C) SNB19 cells, a p53 mutant and INK4A deficient cell, was transduced with the mutants described in panel A and their effect on senescence determined.
Cells were plated at a concentration of 25,000 per well in a 4-well chamber slides (Lab-Tek) and treated for seven days with drug and stained for senescence-associated β-galactosidase (Cell Signaling kit #9860). Cell number was quantitated by DAPI staining and β-galactosidase staining quantitated as a proportion of total cells.

[9] = test system: p27 in responder and non-responder cells; test: p27 levels by immunoblot; assay type: cell-based, human
Excerpt: as §3

CC(=O)c1c(C)c2cnc(Nc3ccc(N4CCNCC4)cn3)nc2n(C2CCCC2)c1=O [PD0332991]
number of SA-β-gal or SAHF positive cells ([1]; seven days after exposure): significant increase
concentration giving a significant increase in SA-β-gal or SAHF positive cells ([1]; seven days, concentrations as low as): ≤ 100 nM
number of SA-β-gal or SAHF positive cells [2]: no increase
time to return to the cell cycle after the drug was removed [3]: ≤ 48 h
return to the cell cycle after the drug was removed (LS8817 and LS0082 cells): did not
catalase expression [4]: increased
number of SA-β-gal and SAHF (HP1γ) positive cells (LS6736 cells): did not increase
MDM2 stability / protein half-life [5]: markedly reduced
MDM2 stability [6]: largely unaffected
HAUSP levels [7]: did not change
senescence as measured by accumulation of SA-β-gal [8]: All of the cell lines underwent senescence
p27 levels [9]: unchanged
